The values below come from US20240417411A1, “COMPOUNDS AND METHODS FOR TREATMENT OF VIRAL INFECTIONS” (priority 2023, published 2024).

For data set [1] the following is noted: 2 μM.
Another data set deals with SARS-CoV2-NLuc. Put plainly: microbe, parasite or virus in culture. Type of data set: cell-based, SARS Coronavirus 2. Conditions: Severe acute respiratory syndrome coronavirus 2, 48 h, read-out: SARS-CoV2 EC50 (nM).
For another data set, the system named is RSV-Luc5. Nature of the data set: microbe, parasite or virus in culture. Conditions: human respiratory syncytial virus, NHBE, 72 h, read-out: RSV NHBE EC50 (nM). Type of data set: cell-based.
The nature of data set [2]: in vitro. Type of data set: cell-based. Particulars: human. In a few lines:
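Uninfected MT4 cells cultured with compound 4–5 days at 37 °C, equilibrated to 25 °C, and viability read by CellTiter-Glo luminescence. Untreated and 2 μM puromycin-treated cells defined 100% and 0% viability; CC50, the concentration reducing viability by 50%, from non-linear regression.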

The nature of data set [3]: in vitro. Format: in vitro ADME. Conditions: human, s9, pH 7.4. In a few lines: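 Test compounds at 2 μM final were incubated in a GI S9 reaction mixture, reactions being started by substrate addition. Diluted supernatants were quantified by LC/MS on a Q-Exactive using analyte/internal standard peak area ratios, with 0.1% formic acid water/acetonitrile gradient elution and 5 ppm mass tolerance.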

A short description of data set [4]: in vitro. Particulars: human, plasma.
In data set [5] the test system is Caco-2 cells (clone C2BBe1). Particulars: human, Caco-2.

One may read the EC50 as the concentration that produces a half-maximal response. In general, CC50 refers to the concentration giving 50% cytotoxicity. Read a high CC50 as better tolerance by the cells. Regarding `N#C[C@@]1(c2ccc3c(N)ncnn23)O[C@H](COC(=O)OC2CCCC2)[C@H]2OC(=O)CCCC(=O)O[C@H]21` [Compound C20, ((7aR,8R,10R,10aR)-10-(4-aminopyrrolo[2,1-f][1,2,4]triazin-7-yl)-10-cyano-2,6-dioxooctahydro-2H-furo[3,4-b][1,4]dioxonin-8-yl)methyl cyclopentyl carbonate], in data set [1], the “Human Plasma T1/2” value came to 3 min. Further, the EC50 in the data set with SARS-CoV2-NLuc came out at 11700 nM; in the data set on RSV-Luc5, 27900 nM. Further, in the data set “in vitro [2]”, the CC50 is more than 50 µM.

Take `CC(=O)OC[C@H]1O[C@@](C#N)(c2ccc3c(N)ncnn23)[C@@H]2OC(=O)CCCC(=O)O[C@@H]21` [Compound C55, ((7aR,8R,10R,10aR)-10-(4-aminopyrrolo[2,1-f][1,2,4]triazin-7-yl)-10-cyano-2,6-dioxooctahydro-2H-furo[3,4-b][1,4]dioxonin-8-yl)methyl acetate]: the “Human Plasma T1/2” value in data set [1] stood at 3 min. Also, the values for the EC50 in the data set on SARS-CoV2-NLuc and in the data set on RSV-Luc5 were 3300 nM and 2070 nM, respectively. The CC50 in “in vitro [2]” is more than 50 µM.

One may read the half-life as the time in which the quantity being followed falls by half. Take `CCOC(=O)OC[C@H]1O[C@@](C#N)(c2ccc3c(N)ncnn23)[C@@H]2OC(=O)CC(C)(C)CC(=O)O[C@@H]21` [Compound C14, ((7aR,8R,10R,10aR)-10-(4-aminopyrrolo[2,1-f][1,2,4]triazin-7-yl)-10-cyano-4,4-dimethyl-2,6-dioxooctahydro-2H-furo[3,4-b][1,4]dioxonin-8-yl)methyl ethyl carbonate]: the half-life at 2 μM amounted to 4.03 min in “in vitro [3]” and 27.1 min in the data set “in vitro [4]”. For the same molecule, the EC50 with SARS-CoV2-NLuc and with RSV-Luc5 was more than 50000 nM in each case. Moreover, in the data set “in vitro [2]”, the CC50 is more than 50 µM. Further, the “Caco2 A to B” value in data set [5] is reported as 4.27. Moreover, the “Caco2 B to A” value in data set [5] came to 8.55.

Turning to `CC1(C)CC(=O)O[C@H]2[C@@H](OC(=O)C1)[C@](C#N)(c1ccc3c(N)ncnn13)O[C@@H]2COC(=O)OC1CCOC1` (stereo partly drawn) [Compound C40, ((7aR,8R,10R,10aR)-10-(4-aminopyrrolo[2,1-f][1,2,4]triazin-7-yl)-10-cyano-4,4-dimethyl-2,6-dioxooctahydro-2H-furo[3,4-b][1,4]dioxonin-8-yl)methyl (tetrahydrofuran-3-yl) carbonate], the half-life at 2 μM stood at 5.83 min in the data set “in vitro [3]” and 72.5 min in “in vitro [4]”. Also, the EC50 with SARS-CoV2-NLuc and in the data set on RSV-Luc5 was more than 50000 nM each time. In “in vitro [2]”, this molecule yielded a CC50 of more than 50 µM. In data set [5], the “Caco2 A to B” value amounted to 0.69. Besides, the “Caco2 B to A” value in data set [5] was 5.13.

In the case of `COC(=O)[C@H]([C@@H](C)OC(=O)OC[C@H]1O[C@@](C#N)(c2ccc3c(N)ncnn23)[C@@H]2OC(=O)CCCC(=O)O[C@@H]21)N(C)C` [Compound C31, (2S,3R)-methyl 3-(((((7aR,8R,10R,10aR)-10-(4-aminopyrrolo[2,1-f][1,2,4]triazin-7-yl)-10-cyano-2,6-dioxooctahydro-2H-furo[3,4-b][1,4]dioxonin-8yl)methoxy)carbonyl)oxy)-2-(dimethylamino)butanoate 2,2,2-trifluoroacetate], the half-life at 2 μM in “in vitro [3]” worked out at 0.57 min; in “in vitro [4]”, 15.5 min. The values for the EC50 in the data set on SARS-CoV2-NLuc and with RSV-Luc5 were 6060 nM and 9190 nM, respectively. The same molecule gave a CC50 in “in vitro [2]” of more than 50 µM. Moreover, the “Caco2 A to B” value in data set [5] amounted to 0.49. Besides, in data set [5], the “Caco2 B to A” value came out at 5.62.

In the case of `COC(=O)[C@H]([C@@H](C)OC(=O)OC[C@H]1O[C@@](C#N)(c2ccc3c(N)ncnn23)[C@@H]2OC(=O)CC(C)(C)CC(=O)O[C@@H]21)N(C)C` [Compound C48, (2S,3R)-methyl 3-(((((7aR,8R,10R,10aR)-10-(4-aminopyrrolo[2,1-f][1,2,4]triazin-7-yl)-10-cyano-4,4-dimethyl-2,6-dioxooctahydro-2H-furo[3,4-b][1,4]dioxonin-8-yl)methoxy)carbonyl)oxy)-2-(dimethylamino)butanoate], the results for the half-life at 2 μM in “in vitro [3]” and in “in vitro [4]” were 29.5 min and 20.3 min, respectively. The EC50 in the data set with SARS-CoV2-NLuc and in the data set on RSV-Luc5 was more than 50000 nM each time. The same molecule showed a CC50 in the data set “in vitro [2]” of more than 50 µM. In data set [5], the “Caco2 A to B” value was determined as 0.22. The “Caco2 B to A” value in data set [5] was found to be 1.81.
